Experiments:
[1] = target: Reverse Transcriptase from Patient #A infected by HIV-1 (Human immunodeficiency virus type 1, UniProt P04585)
Experimental: (§1) Transformed cells (that grew in TRP lacking media) were incubated for 16h with shacking in 13 mL rich medium (Yeast extract Peptone Dextrose) at a final cell density 0,06 OD / mL.
(§2) 13 mL cell culture supernatant was collected after centrifugation at 1500 rpm for 5min and kept as the source for in vitro Reverse Transcriptase resistance analysis.
(§3) HIV Reverse Transcriptase resistance to reverse transcriptase inhibitors was analyzed as follows.
(§4) In a final volume of 150µl, 120µl of transformed cell's medium were incubated in 56 mM Tris-HCl, 56 mM KCl and 9 mM MgCl2 with: • 1.76µg of MS2 RNA (SEQ ID NO: 20), and • 0.059 pmoles of 5'biotinylated primer of SEQ ID NO: 19, and • dNTP mixture (1.5pmoles of each one; dATP, dGTP, dCTP, and dTTP), and • 0.19 pmoles of DIG (digoxigenin) modified dUTP, and • 30 µl of one of each concentration out of eight serial one to one dilutions of Reverse Transcriptase inhibitors in water (in this way the inhibitor was further diluted […]).
(§5) The Reverse Transcriptase inhibitor's one to one dilution started at the following concentrations:
(§6) The mixture reaction was incubated at 37°C for an overnight period (16 - 20 hours).
(§7) At the end of the incubation, each reaction mixture was transferred to a streptavidin coated flat bottom well for ELISA based RNA retro-transcribed DNA determination.
(§8) Wells were washed three times with 200µl of wash buffer (0.1%BSA and 0.05% Tween in PBS) before 30min incubation at room temperature with 100µl of a 1:1000 dilution of Peroxidase -conjugated monoclonal mouse anti-DIG (from Jackson Immunosearch ref N°JIR 200-032-156) in wash buffer.

[2] = target: Reverse Transcriptase from Patient #B infected by HIV-1 (Human immunodeficiency virus type 1, UniProt P04585)
Experimental: as §1, §2, §3, §4, §5, §6, §7, §8

[3] = target: Reverse Transcriptase from Patient #C infected by HIV-1 (Human immunodeficiency virus type 1, UniProt P04585)
Experimental: as §1, §2, §3, §4, §5, §6, §7, §8

Measured: sensitivity of RT to inhibitor compared with the reference isolate HIV-1 IIIB

Cc1ccnc2c1NC(=O)c1cccnc1N2C1CC1 [NVP, nevirapine]
more sensitive: all assays above
